Source: patent publication US20240148710A1, “INHIBITORS OF CYTOCHROME P450 FAMILY 7 SUBFAMILY B MEMBER 1 (CYP7B1) FOR USE IN MOBILIZATION OF HEMATOPOIETIC STEM AND PROGENITOR CELLS” (priority 2022, published 2024)
“Also recorded” adds a separate entry of the source.

Assays:
colony-forming HSPCs [1] = assay: Mobilization of colony-forming HSPCs into the peripheral blood of mice (CFU count of PBMCs in methylcellulose culture); type: in vivo, C57BL/6 mice
Experimental: To test whether co-administration of 27HC with G-CSF plus another clinically-used HSC mobilizing agent, AMD3100 (a CXCR4 chemokine receptor antagonist that is also known as plerixafor), further enhances HSC mobilization. Two-month-old C57BL/6 mice were treated with a single agent alone, a combination of two agents (27HC+AMD3100, or G-CSF+AMD3100), all three agents combined, or vehicle alone (2-hydroxypropyl-β-cyclodextrin for 27HC, PBS for G-CSF, and PBS for AMD3100).
(§1) Mice were treated with 27HC (10 mg/kg/day) and/or G-CSF (250 μg/kg/day) for 4 days and then treated with AMD3100 (5 mg/kg) one hour before the peripheral blood collection (FIG. 1). Peripheral blood mononuclear cells (PBMCs) were isolated by density gradient centrifugation, and were seeded in the methylcellulose culture medium. Colonies were counted after 12 days of culture.
(§2) This experiment was performed as described in Example 1, except, clotrimazole (50 mg/kg/day) was used instead of 27HC.

HSCs [2] = settings: recently demonstrated; cited from earlier work
HSCs [3] = assay: HSC proliferation and mobilization in mice treated with ERα ligands; type: in vivo; settings: E2: male mice and non-pregnant females
Description: However, the mechanism by which E2 and 27HC, two endogenous ERα ligands, differentially regulate HSCs is unknown. […] E2 levels increase during pregnancy, when extramedullary hematopoiesis (EMH) is induced to increase the production of red blood cells. In addition to increased HSC proliferation, EMH during pregnancy requires increased HSC mobilization, which the present inventors found to also depend on ERα in HSCs. […] Thus, through their differential effects on HSC behavior in vivo—E2 and 27HC act in concert to promote hematopoiesis during pregnancy.

colony-forming HSPCs [4] = settings: AMD3100 s.c. injection; cited from earlier work
colony-forming HSPCs [5] = assay: Mobilization of colony-forming HSPCs into the peripheral blood of sickle cell model mice (CFU count); type: in vivo, sickle cell model mice (Townes model mice); settings: clotrimazole 50 mg/kg/day i.p. for 4 days, AMD3100 s.c. one hour before analyses, FIGS. 4A, 4B
Experimental: as §1, §2

colony-forming HSPCs [6] = assay: Mobilization of colony-forming HSPCs into the peripheral blood of mice (CFU count of PBMCs in methylcellulose culture); type: in vivo, C57BL/6 mice; settings: 50 mg/kg/day oral gavage for 4 days, AMD3100 s.c. one hour before analyses, no G-CSF; trends; FIGS. 5A, 5B

SMILES	Effect of treatment of mice on HSC proliferation and mobilization (HSCs [2])	Effect of administration on HSC proliferation and mobilization (found by the present inventors) (HSCs [3])	CFUs (including CFU-gmEM) in the peripheral blood, two-agent combination with AMD3100 versus AMD3100 single agent (colony-forming HSPCs [6])	also measured
C[C@@H](CO)CCC[C@@H](C)[C@H]1CC[C@H]2[C@@H]3CC=C4C[C@@H](O)CC[C@]4(C)[C@H]3CC[C@]12C [27HC, 27-hydroxycholesterol]	induces ERα-dependent HSC mobilization but not proliferation	induces HSC mobilization (but not proliferation)	–	CFUs (including CFU-gmEM) in the peripheral blood, three-agent combination with G-CSF and AMD3100 versus G-CSF and AMD3100 (colony-forming HSPCs [1]; 27HC 10 mg/kg/day and G-CSF 250 μg/kg/day s.c. for 4 days, AMD3100 5 mg/kg one hour before collection, FIGS. 2C, 2D): significantly more CFUs, including CFU-gmEM, than the two-agent combination treatment with G-CSF and AMD3100; also recorded: mobilized more colony-forming HSPCs as compared to a single agent alone or a combination of two agents; CFUs in the peripheral blood, two-agent combination with AMD3100 versus AMD3100 single agent (colony-forming HSPCs [1]; 27HC 10 mg/kg/day s.c. for 4 days, AMD3100 5 mg/kg s.c. one hour before blood collection, FIGS. 2A, 2B): significantly more CFUs than the AMD3100 single-agent treatment; also recorded: mobilized colony-forming HSPCs significantly more than AMD3100 alone; HSC mobilization on treating mice with 27HC (colony-forming HSPCs [1]; FIG. 2): promotes HSC mobilization
c1cc(CN2CCCNCCNCCCNCC2)ccc1CN1CCCNCCNCCCNCC1 [AMD3100]	–	–	–	Time of peak mobilization of HSCs after AMD3100 injection (colony-forming HSPCs [4]): one hour post administration
C[C@]12CC[C@@H]3c4ccc(O)cc4CC[C@H]3[C@@H]1CC[C@@H]2O [E2, 17β-estradiol]	induces HSC proliferation but not mobilization	induces HSC proliferation but not mobilization	–	–
Clc1ccccc1C(c1ccccc1)(c1ccccc1)n1ccnc1 [clotrimazole]	–	–	synergistic effects with the single-agent AMD3100 treatment	CFUs (including CFU-gmEM) in the peripheral blood, two-agent combination with AMD3100 versus AMD3100 single agent (colony-forming HSPCs [5]): significantly more CFUs, including CFU-gmEM, than the single-agent AMD3100 treatment; CFUs (including CFU-gmEM) in the peripheral blood, three-agent combination with G-CSF and AMD3100 versus G-CSF and AMD3100 (colony-forming HSPCs [1]; clotrimazole 50 mg/kg/day i.p. for 4 days, G-CSF s.c. for 4 days, AMD3100 one hour before analyses, FIGS. 3C, 3D): more CFUs, including CFU-gmEM, than the two-agent combination treatment with G-CSF and AMD3100; CFUs in the peripheral blood, two-agent combination with AMD3100 versus AMD3100 single agent (colony-forming HSPCs [1]; clotrimazole 50 mg/kg/day i.p., AMD3100 s.c. one hour before analyses, FIGS. 3A, 3B): significantly more CFUs than the single-agent AMD3100 treatment
CC(C)(C(=O)c1cccnc1)c1cccnc1 [metyrapone]	–	–	generated more CFUs, including CFU-gmEM, than the single-agent AMD3100 treatment	–
C[C@@H](c1ncncc1F)[C@](O)(Cn1cncn1)c1ccc(F)cc1F [voriconazole]	–	–	generated more CFUs, including CFU-gmEM, than the single-agent AMD3100 treatment	–
